Results as given in EP0178388A1, “Quinolinecarboxylic acid derivatives” (KYORIN PHARMACEUTICAL CO., LTD., priority 1984, dated 1986).
Values after ≈ are worked out from the molar mass of the structure shown. Structures can show the parent of a compound that is named as a salt.

Legend:
Assay type in all cases: cell-based
[1] = tested on: S. faecalis IID 682; assay: In vitro antibacterial activity, MIC (standard strain); details: Enterococcus faecalis, IID682, S. faecalis IID 682, 10^6 cells/ml
[2] = tested on: S. agalactiae 4394; assay: In vitro antibacterial activity, MIC (clinical isolates); details: Streptococcus agalactiae; S. agalactiae 4394, 10^6 cells/ml, clinical isolate
[3] = tested on: Peptostreptococcus anaerobius KYA 27337; assay: In vitro antibacterial activity, MIC (standard strain); details: KYA27337, Peptostreptococcus anaerobius KYA 27337, 10^6 cells/ml
[4] = tested on: S. pyogenes 3130; assay: In vitro antibacterial activity, MIC (clinical isolates); details: Streptococcus pyogenes; S. pyogenes 3130, 10^6 cells/ml, clinical isolate
[5] = tested on: Enterobacter cloacae IID 977; assay: In vitro antibacterial activity, MIC (standard strain); details: IID977, Enterobacter cloacae IID 977, 10^6 cells/ml
[6] = tested on: Acinetobacter anitratus IID 876; assay: as above; details: Acinetobacter calcoaceticus, IID876; Acinetobacter anitratus IID 876, 10^6 cells/ml, standard strain; read-out: MIC
[7] = tested on: Veillonella parvula KYA 10790; assay: as above; details: KYA10790, Veillonella parvula KYA 10790, 10^6 cells/ml
[8] = tested on: Bacillus subtilis PCI 219; assay: as above; details: PCI219; Bacillus subtilis PCI 219, 10^6 cells/ml, standard strain; read-out: MIC
[9] = tested on: P. mirabilis IID 994; assay: as above; details: Proteus mirabilis, IID994, P. mirabilis IID 994, 10^6 cells/ml
[10] = tested on: Escherichia coli NIHJ JC-2; assay: as above; details: NIHJJC2, Escherichia coli NIHJ JC-2, 10^6 cells/ml
[11] = tested on: B. thetaiotaomicron (0661); assay: as above; details: Bacteroides thetaiotaomicron; B. thetaiotaomicron (0661), 10^6 cells/ml, standard strain; read-out: MIC
[12] = tested on: B. fragilis 25285; assay: as above; details: Bacteroides fragilis; B. fragilis 25285, 10^6 cells/ml, standard strain; read-out: MIC
[13] = tested on: P. morganii IID 602; assay: as above; details: Morganella morganii, IID602; P. morganii IID 602, 10^6 cells/ml, standard strain; read-out: MIC
[14] = tested on: Streptococcus pyogenes S-8; assay: as above; details: S8, Streptococcus pyogenes S-8, 10^6 cells/ml
[15] = tested on: S. pneumoniae 3227; assay: In vitro antibacterial activity, MIC (clinical isolates); details: Streptococcus pneumoniae; S. pneumoniae 3227, 10^6 cells/ml, clinical isolate
[16] = tested on: Bacteroides fragilis GM 7000; assay: In vitro antibacterial activity, MIC (standard strain); details: GM7000; Bacteroides fragilis GM 7000, 10^6 cells/ml, standard strain; read-out: MIC
[17] = tested on: C. perfringens KYA (ATCC) 13123; assay: microbe, parasite or virus in culture; details: Clostridium perfringens
[18] = tested on: Clostridium difficile I-E; assay: In vitro antibacterial activity, MIC (standard strain); details: Clostridioides difficile, 10^6 cells/ml
[19] = tested on: Serratia marcescens IID 618; assay: as above; details: IID618, Serratia marcescens IID 618, 10^6 cells/ml, read-out: MIC
[20] = tested on: S. agalactiae 4049; assay: In vitro antibacterial activity, MIC (clinical isolates); details: Streptococcus agalactiae; S. agalactiae 4049, 10^6 cells/ml, clinical isolate
[21] = tested on: S. pneumoniae 2054; assay: as above; details: Streptococcus pneumoniae; S. pneumoniae 2054, 10^6 cells/ml, clinical isolate
[22] = tested on: S. pneumoniae 15; assay: as above; details: Streptococcus pneumoniae; S. pneumoniae 15, 10^6 cells/ml, clinical isolate
[23] = tested on: Proteus vulgaris IFO 3167; assay: In vitro antibacterial activity, MIC (standard strain); details: Proteus vulgaris, IFO3167
[24] = tested on: Salmonella enteritidis IID 604; assay: as above; details: Salmonella enterica; Salmonella enteritidis IID 604, 10^6 cells/ml, standard strain; read-out: MIC
[25] = tested on: Yersinia enterocolitica IID 981; assay: as above; details: IID981; Yersinia enterocolitica IID 981, 10^6 cells/ml, standard strain; read-out: MIC
[26] = tested on: S. agalactiae 4470; assay: In vitro antibacterial activity, MIC (clinical isolates); details: Streptococcus agalactiae; S. agalactiae 4470, 10^6 cells/ml, clinical isolate
[27] = tested on: S. pyogenes 4340; assay: as above; details: Streptococcus pyogenes; S. pyogenes 4340, 10^6 cells/ml, clinical isolate
[28] = tested on: Pseudomonas aeruginosa V-1; assay: In vitro antibacterial activity, MIC (standard strain); details: V1; Pseudomonas aeruginosa V-1, 10^6 cells/ml, standard strain; read-out: MIC
[29] = tested on: S. aureus IID 670 (Terajima); assay: as above; details: Staphylococcus aureus, IID670, 10^6 cells/ml
[30] = tested on: S. agalactiae 4368; assay: In vitro antibacterial activity, MIC (clinical isolates); details: Streptococcus agalactiae; S. agalactiae 4368, 10^6 cells/ml, clinical isolate
[31] = tested on: S. epidermidis IID 866; assay: In vitro antibacterial activity, MIC (standard strain); details: Staphylococcus epidermidis, IID866, S. epidermidis IID 866, 10^6 cells/ml
[32] = tested on: S. faecalis 214; assay: In vitro antibacterial activity, MIC (clinical isolates); details: Enterococcus faecalis; S. faecalis 214, 10^6 cells/ml, clinical isolate
[33] = tested on: P. aeruginosa IFO 12689; assay: In vitro antibacterial activity, MIC (standard strain); details: Pseudomonas aeruginosa, IFO12689, P. aeruginosa IFO 12689, 10^6 cells/ml, standard strain; read-out: MIC
[34] = tested on: Staphylococcus aureus 209 P; assay: as above; details: 10^6 cells/ml, read-out: MIC

CC1CN(c2c(F)cc3c(=O)c(C(=O)O)cn(C4CC4)c3c2F)CCN1 (stereo not drawn) [Example 2, l-Cyclopropyl-6,8-difluoro-l,4-dihydro-7-(3-methyl-l-piperazinyl)-4-oxoquinoline-3-carboxylic acid]
MIC [1]: 0.78 µg/mL (≈ 2.15 µM) | MIC [2]: 1.56 µg/mL (≈ 4.29 µM) | MIC [3]: 1.56 µg/mL (≈ 4.29 µM) | MIC [4]: 0.78 µg/mL (≈ 2.15 µM) | MIC [5]: 0.05 µg/mL (≈ 0.138 µM) | MIC [6]: 0.006 µg/mL (≈ 0.0165 µM) | MIC [7]: 0.2 µg/mL (≈ 0.55 µM) | MIC [8]: 0.05 µg/mL (≈ 0.138 µM) | MIC [9]: 0.025 µg/mL (≈ 0.0688 µM) | MIC [10]: ≤ 0.006 µg/mL | MIC [11]: 3.13 µg/mL (≈ 8.61 µM) | MIC [12]: 0.78 µg/mL (≈ 2.15 µM) | MIC [13]: 0.05 µg/mL (≈ 0.138 µM) | MIC [14]: 0.78 µg/mL (≈ 2.15 µM) | MIC [15]: 1.56 µg/mL (≈ 4.29 µM) | MIC [16]: 1.56 µg/mL (≈ 4.29 µM) | MIC [17]: 0.78 µg/mL (≈ 2.15 µM) | MIC [18]: 6.25 µg/mL (≈ 17.2 µM) | MIC [19]: 0.05 µg/mL (≈ 0.138 µM) | MIC [20]: 1.56 µg/mL (≈ 4.29 µM) | MIC [21]: 1.56 µg/mL (≈ 4.29 µM) | MIC [22]: 0.78 µg/mL (≈ 2.15 µM) | MIC [23]: 0.0125 µg/mL (≈ 0.0344 µM) | MIC [24]: 0.025 µg/mL (≈ 0.0688 µM) | MIC [25]: 0.05 µg/mL (≈ 0.138 µM) | MIC [26]: 0.78 µg/mL (≈ 2.15 µM) | MIC [27]: 0.78 µg/mL (≈ 2.15 µM) | MIC [28]: 0.2 µg/mL (≈ 0.55 µM) | MIC [29]: 0.2 µg/mL (≈ 0.55 µM) | MIC [30]: 0.78 µg/mL (≈ 2.15 µM) | MIC [31]: 0.2 µg/mL (≈ 0.55 µM) | MIC [32]: 0.78 µg/mL (≈ 2.15 µM) | MIC [33]: 0.78 µg/mL (≈ 2.15 µM) | MIC [34]: 0.2 µg/mL (≈ 0.55 µM)

CC1CN(c2c(F)cc3c(=O)c(C(=O)O)cn(C4CC4)c3c2Cl)CCN1 (stereo not drawn) [Example 5, 8-Chloro-l-cyclopropyl-6-fluoro-1,4-dihydro-7-(3-methyl-1-piperazinyl)-4-oxoquinoline-3-carboxylic acid hydrochloride]
MIC [1]: 0.39 µg/mL | MIC [2]: 0.78 µg/mL | MIC [3]: 0.39 µg/mL | MIC [4]: 0.39 µg/mL | MIC [5]: 0.05 µg/mL | MIC [6]: 0.05 µg/mL | MIC [7]: 0.2 µg/mL | MIC [8]: 0.025 µg/mL | MIC [9]: 0.025 µg/mL | MIC [10]: ≤ 0.006 µg/mL | MIC [11]: 1.56 µg/mL | MIC [12]: 0.39 µg/mL | MIC [13]: 0.1 µg/mL | MIC [14]: 0.39 µg/mL | MIC [15]: 0.78 µg/mL | MIC [16]: 0.39 µg/mL | MIC [17]: 0.78 µg/mL | MIC [18]: 3.13 µg/mL | MIC [19]: 0.05 µg/mL | MIC [20]: 0.78 µg/mL | MIC [21]: 0.78 µg/mL | MIC [22]: 0.78 µg/mL | MIC [23]: 0.0125 µg/mL | MIC [24]: 0.025 µg/mL | MIC [25]: 0.05 µg/mL | MIC [26]: 0.78 µg/mL | MIC [27]: 0.39 µg/mL | MIC [28]: 0.78 µg/mL | MIC [29]: 0.1 µg/mL | MIC [30]: 0.39 µg/mL | MIC [31]: 0.1 µg/mL | MIC [32]: 0.78 µg/mL | MIC [33]: 1.56 µg/mL | MIC [34]: 0.1 µg/mL
